Reference: US20040266784A1, “Calcium channel inhibitors comprising benzhydril spaced from piperazine” (priority 1998, published 2004)
Read-outs that look alike come from different tables or passages of the source.

Experiments:
[1] = biological target: T1, rat N-type channels (α1B+α2δ+β1b subunits) (Rattus norvegicus, UniProt Q02294); test: Whole cell patch clamp, N-type calcium channel block in HEK 293 cells; format: cell-based
T1 construct: expressed in transfected cells
Description: Antagonist activity was measured using whole cell patch recordings on human embryonic kidney cells either stably or transiently expressing rat N-type channels (α1B+[…]+β1b subunits) with 5 mM barium as a charge carrier. Alternatively, cells either stably or transiently expressing rat L-type channels (α1C+α2δ+β1b cDNA subunits) and P/Q-type channels (α1A+α2δ+β1b cDNA subunits)
HEK 293 cells were transfected by a standard calcium-phosphate-DNA coprecipitation method using the rat α1B+β1b+α2δ N-type calcium channel subunits in a vertebrate expression vector (for example, see Current Protocols in Molecular Biology).
After an incubation period of from 24 to 72 hrs the culture medium was removed and replaced with external recording solution (see below). Whole cell patch clamp experiments were performed using an Axopatch 200B amplifier (Axon Instruments, Burlingame, Calif.) linked to an IBM compatible personal computer equipped with pCLAMP software. […] Current data shown were elicited by a train of 100 ms test pulses at 0.066 Hz from −100 mV and/or −80 mV to various potentials (min. −20 mV, max. +30 mV). Drugs were perfused directly into the vicinity of the cells using a microperfusion system.
Normalized dose-response curves were fit (Sigmaplot 4.0, SPSS Inc., Chicago, Ill.) by the Hill equation to determine IC50 values. Steady-state inactivation curves were plotted as the normalized test pulse amplitude following 5 s inactivating prepulses at +10 mV increments.
Alternatively, N-type calcium channels (α1B+α2δ+β1b cDNA subunits), L-type channels (α1C+α2δ+β1b cDNA subunits) and P/Q-type channels (α1A+α2δ+β1b cDNA subunits) were transiently expressed in HEK 293 cells. Briefly, cells were cultured in Dulbecco's modified eagle medium (DMEM) supplemented with 10% fetal bovine serum, 200 U/ml penicillin and 0.2 mg/ml streptomycin at 37° C. with 5% CO2. […] At 12 hours the medium was replaced and the cells transiently transfected using a standard calcium phosphate protocol and the appropriate calcium channel cDNAs. Fresh DMEM was supplied and the cells transferred to 28° C./5% CO2.
Whole cell patch clamp experiments were performed using an Axopatch 200B amplifier (Axon Instruments, Burlingame, Calif.) linked to a personal computer equipped with pCLAMP software. […] Currents were typically elicited from a holding potential of −80 mV to +10 mV using Clampex software (Axon Instruments). […] The compounds were then applied during the low frequency pulse trains for two to three minutes to assess tonic block, and subsequently the pulse frequency was increased to 0.2 Hz to assess frequency dependent block. Data were analyzed using Clampfit (Axon Instruments) and SigmaPlot 4.0 (Jandel Scientific).

[2] = biological target: T2, human α1G subunits (T-type channels) (Homo sapiens, UniProt O43497); test: Block of α1G T-type channels, patch clamp in HEK cell lines; format: cell-based
T2 construct: expressed in transfected cells
T2 sequence (O43497 whole entry): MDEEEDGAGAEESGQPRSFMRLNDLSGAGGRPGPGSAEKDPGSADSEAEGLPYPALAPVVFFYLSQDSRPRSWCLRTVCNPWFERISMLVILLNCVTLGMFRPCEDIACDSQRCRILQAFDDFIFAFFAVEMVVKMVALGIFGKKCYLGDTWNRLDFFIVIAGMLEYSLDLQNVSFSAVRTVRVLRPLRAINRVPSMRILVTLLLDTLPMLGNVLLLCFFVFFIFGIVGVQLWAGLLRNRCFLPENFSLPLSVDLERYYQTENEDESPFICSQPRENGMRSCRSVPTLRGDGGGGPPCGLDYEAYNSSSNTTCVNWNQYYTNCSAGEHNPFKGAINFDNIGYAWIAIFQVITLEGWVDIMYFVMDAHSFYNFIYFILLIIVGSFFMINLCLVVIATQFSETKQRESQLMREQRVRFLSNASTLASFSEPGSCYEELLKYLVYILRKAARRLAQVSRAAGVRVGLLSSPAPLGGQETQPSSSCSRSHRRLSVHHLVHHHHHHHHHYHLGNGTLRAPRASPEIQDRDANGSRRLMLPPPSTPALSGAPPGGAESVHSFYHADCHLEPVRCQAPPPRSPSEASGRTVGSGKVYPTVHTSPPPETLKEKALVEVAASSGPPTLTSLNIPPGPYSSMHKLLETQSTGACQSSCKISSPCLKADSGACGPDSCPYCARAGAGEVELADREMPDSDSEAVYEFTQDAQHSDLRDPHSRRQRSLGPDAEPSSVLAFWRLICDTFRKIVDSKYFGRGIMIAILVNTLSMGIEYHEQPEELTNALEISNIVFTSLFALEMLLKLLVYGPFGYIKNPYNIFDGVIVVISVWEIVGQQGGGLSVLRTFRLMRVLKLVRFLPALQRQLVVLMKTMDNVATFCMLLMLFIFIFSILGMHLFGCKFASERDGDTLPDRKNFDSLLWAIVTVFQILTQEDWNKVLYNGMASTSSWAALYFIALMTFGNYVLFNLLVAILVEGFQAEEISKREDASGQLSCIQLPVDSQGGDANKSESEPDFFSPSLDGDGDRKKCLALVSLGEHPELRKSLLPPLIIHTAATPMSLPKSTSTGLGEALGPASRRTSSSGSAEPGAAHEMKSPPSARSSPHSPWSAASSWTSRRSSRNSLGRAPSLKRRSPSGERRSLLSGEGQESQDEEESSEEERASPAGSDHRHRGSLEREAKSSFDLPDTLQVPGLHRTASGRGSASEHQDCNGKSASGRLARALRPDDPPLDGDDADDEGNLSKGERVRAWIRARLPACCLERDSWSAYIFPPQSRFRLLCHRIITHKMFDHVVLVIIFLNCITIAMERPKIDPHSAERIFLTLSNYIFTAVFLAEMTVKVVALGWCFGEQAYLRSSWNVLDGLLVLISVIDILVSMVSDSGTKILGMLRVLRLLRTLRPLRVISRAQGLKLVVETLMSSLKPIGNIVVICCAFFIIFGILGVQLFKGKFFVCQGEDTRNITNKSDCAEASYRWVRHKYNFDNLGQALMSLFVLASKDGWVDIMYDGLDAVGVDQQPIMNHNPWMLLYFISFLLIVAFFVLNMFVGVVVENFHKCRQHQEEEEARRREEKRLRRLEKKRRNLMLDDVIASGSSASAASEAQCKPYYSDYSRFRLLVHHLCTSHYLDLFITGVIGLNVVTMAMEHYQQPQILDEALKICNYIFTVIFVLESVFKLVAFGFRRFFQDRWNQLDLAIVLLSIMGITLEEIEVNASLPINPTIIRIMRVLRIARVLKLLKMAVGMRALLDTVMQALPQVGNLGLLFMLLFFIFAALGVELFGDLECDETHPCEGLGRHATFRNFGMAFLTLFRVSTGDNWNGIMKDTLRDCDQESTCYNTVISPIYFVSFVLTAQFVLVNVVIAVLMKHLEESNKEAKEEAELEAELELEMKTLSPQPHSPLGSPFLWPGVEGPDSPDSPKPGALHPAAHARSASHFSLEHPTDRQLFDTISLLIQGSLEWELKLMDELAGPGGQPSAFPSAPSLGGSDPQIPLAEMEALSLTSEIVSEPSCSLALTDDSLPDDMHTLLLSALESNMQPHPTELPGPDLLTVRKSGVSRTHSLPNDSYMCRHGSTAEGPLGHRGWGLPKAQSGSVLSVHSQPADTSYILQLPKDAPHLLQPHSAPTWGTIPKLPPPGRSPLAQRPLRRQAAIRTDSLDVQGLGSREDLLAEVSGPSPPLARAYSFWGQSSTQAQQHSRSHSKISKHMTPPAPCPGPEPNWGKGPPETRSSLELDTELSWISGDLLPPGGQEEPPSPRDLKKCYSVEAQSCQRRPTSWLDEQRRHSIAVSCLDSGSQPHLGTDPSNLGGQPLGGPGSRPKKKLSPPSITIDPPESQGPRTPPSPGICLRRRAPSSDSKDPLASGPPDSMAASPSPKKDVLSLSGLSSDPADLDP
Description: Standard patch-clamp techniques were employed to identify blockers of T-type currents. Briefly, previously described HEK cell lines stably expressing human α1G subunits were used for all the recordings (passage #: 4-20, 37° C., 5% CO2). To obtain T-type currents, plastic dishes containing semi-confluent cells were positioned on the stage of a ZEISS AXIOVERT S100 microscope after replacing the culture medium with external solution (see below). Whole-cell patches were obtained using pipettes (borosilicate glass with filament, O.D.: 1.5 mm, I.D.: 0.86 mm, 10 cm length), fabricated on a SUTTER P-97 puller with resistance values of ˜5 MΩ (see below for internal medium).
Test compounds were dissolved in external solution, 0.1-0.01% DMSO. After ˜10 min rest, they were applied by gravity close to the cell using a WPI microfil tubing. The “non-inactivating” pre-pulse was used to examine the resting block of a compound. The “inactivating” protocol was employed to study voltage-dependent block. However, the initial data were obtained using the non-inactivating protocol.

[3] = 0.067 Hz, read-out: IC50 for N-type Calcium Channel Block (0.067 Hz)
[4] = 0.2 Hz, read-out: IC50 for N-type Calcium Channel Block (0.2 Hz)
[5] = 80 mV, read-out: Block of α1G T-type Channels IC50, 80 mV
[6] = 100 mV, non-inactivating protocol, read-out: Block of α1G T-type Channels IC50, 100 mV

| SMILES | IC50 [1, 3] | IC50 [1, 4] | IC50 [2, 5] | IC50 [2, 6] |
| --- | --- | --- | --- | --- |
| COc1cc(C(=O)N2CCN(C(=O)CCCCC(O)(c3ccc(F)cc3)c3ccc(F)cc3)CC2)cc(OC)c1OC [Compound P46, 6,6-bis-(4-fluoro-phenyl)-6-hydroxy-1-[4-(3,4,5,-trimethoxy-benzoyl)-piperazin-1-yl]-hexan-1-one] | 430 nM | 340 nM | – | – |
| COc1ccc(C(=O)N2CCN(C(=O)CCCCC(c3ccc(F)cc3)c3ccc(F)cc3)CC2)cc1OC [Compound P64] | 541 nM | 390 nM | – | – |
| COc1ccc(OCCN2CCN(CCCCCC(c3ccc(F)cc3)c3ccc(F)cc3)CC2)cc1OC [Compound P60, 1-[6,6-bis-(4-fluoro-phenyl)-hexyl]-4-[2-(3,4,-dimethoxy-phenoxy)-ethyl]-piperazine] | 970 nM | 790 nM | – | – |
| O=C(CCCCC(c1ccc(F)cc1)c1ccc(F)cc1)N1CCN(c2nc3ccccc3s2)CC1 [Compound P69] | 502 nM | 410 nM | – | – |
| CC(C)(C)c1ccc(C(=O)N2CCN(C(=O)CCCCC(c3ccc(F)cc3)c3ccc(F)cc3)CC2)cc1 [Compound P72] | 808 nM | 630 nM | – | – |
| Cc1cc(OC[C@@H](O)CN2CCN(C(=O)CCCCC(c3ccc(F)cc3)c3ccc(F)cc3)CC2)c(C)c(C)c1N [Compound P68] | 1580 nM | 975 nM | – | – |
| O=C(CCCCC(c1ccc(F)cc1)c1ccc(F)cc1)N1CCN(CCOc2ccc(F)cc2)CC1 [Compound P79] | 579 nM | 423 nM | – | – |
| Fc1ccc(C(CCCCCN2CCN(CCSc3nc4ccccc4s3)CC2)c2ccc(F)cc2)cc1 [Compound P74] | 660 nM | 430 nM | – | – |
| Fc1ccc(C(CCCCCN2CCN(Cc3cc(C(F)(F)F)cc(C(F)(F)F)c3)CC2)c2ccc(F)cc2)cc1 [Compound P70] | 1040 nM | 1060 nM | – | – |
| Cc1ccc(C(=O)NCC(=O)N2CCN(CCCCCC(c3ccc(F)cc3)c3ccc(F)cc3)CC2)cc1 [Compound P84] | 511 nM | 295 nM | 149 nM | 370 nM |
| O=C(CCCCC(c1ccc(F)cc1)c1ccc(F)cc1)N1CCN(CCNc2ccccc2)CC1 [Compound P80] | 960 nM | 660 nM | – | – |
| CC(C)(C)c1cc(C(=O)N2CCN(C(=O)CCCCC(c3ccc(F)cc3)c3ccc(F)cc3)C(=O)C2)cc(C(C)(C)C)c1O [Compound P57] | 600 nM | 400 nM | – | – |
| COc1ccc(OCCN2CCN(C(=O)CCCCC(c3ccc(F)cc3)c3ccc(F)cc3)CC2)cc1OC [Compound P59, 1-{4-[2-(3,4-dimethoxy-phenoxy)ethyl]-piperazin-1-yl}-6,6-bis-(4-fluoro-phenyl)-hexan-1-one] | 810 nM | 430 nM | – | – |
| COc1c(C(C)(C)C)cc(CN2CCN(C(=O)CCCCC(c3ccc(F)cc3)c3ccc(F)cc3)CC2=O)cc1C(C)(C)C [Compound P52] | 400 nM | 370 nM | – | – |
| CCOC(=O)C1CN(CCCCCC(c2ccc(F)cc2)c2ccc(F)cc2)CCN1Cc1cc(OC)c(OC)c(OC)c1 (stereo not shown) [Compound P62] | 680 nM | 410 nM | – | – |
| COc1cc(OCCN2CCN(CCCCCC(c3ccc(F)cc3)c3ccc(F)cc3)CC2)cc(OC)c1OC [Compound P66] | 800 nM | 550 nM | – | – |
| COc1cc(CN2CCN(C(=O)CCCCCCCC(c3ccccc3)c3ccccc3)CC2)cc(OC)c1OC [Compound P102] | 419 nM | 292 nM | – | – |
| COc1cc(CN2CCN(CCCCCC(c3ccc(F)cc3)c3ccc(F)cc3)[C@@H](C(=O)O)C2)cc(OC)c1OC [Compound P61] | 610 nM | 520 nM | – | – |
| COc1cc(C(=O)N2CCN(C(=O)CCCCC(c3ccc(F)cc3)c3ccc(F)cc3)CC2)cc(OC)c1O [Compound P75] | 839 nM | 603 nM | – | – |
| Fc1ccc(C(CCCCCN2CCN(Cc3ccc(Br)cc3)CC2)c2ccc(F)cc2)cc1 [Compound P73] | 439 nM | 377 nM | – | – |
| Fc1ccc(C(CCCCCN2CCN(CCOc3ccc4c(c3)OCO4)CC2)c2ccc(F)cc2)cc1 [Compound P65] | 705 nM | 517 nM | – | – |
| O=C(CCCCC(c1ccc(F)cc1)c1ccc(F)cc1)N1CCN(C(=O)c2cc(C(F)(F)F)cc(C(F)(F)F)c2)CC1 [Compound P71] | 870 nM | 510 nM | – | – |
| Oc1c(Br)cc(CN2CCN(CCCCCC(c3ccc(F)cc3)c3ccc(F)cc3)CC2)cc1Br [Compound P76] | 680 nM | 514 nM | – | – |
| Cc1cc(OC[C@@H](O)CN2CCN(CCCCCC(c3ccc(F)cc3)c3ccc(F)cc3)CC2)c(C)c(C)c1N [Compound P67] | 1050 nM | 928 nM | – | – |

Now those with a lower IC50 [1, 3], led by results:

| IC50 [1, 3] | IC50 [1, 4] | IC50 [2, 5] | IC50 [2, 6] | SMILES |
| --- | --- | --- | --- | --- |
| 386 nM | 192 nM | 59 nM | 173 nM | O=C(NCC(=O)N1CCN(CCCCCC(c2ccc(F)cc2)c2ccc(F)cc2)CC1)c1ccc(Cl)cc1 [Compound P83] |
| 379 nM | 217 nM | – | – | CC(C)(C)c1cc(C(=O)N2CCN(C(=O)CCCCC(c3ccc(F)cc3)c3ccc(F)cc3)CC2)cc(C(C)(C)C)c1O [Compound P28] |
| 345 nM | 245 nM | – | – | Fc1ccc(C(CCCCCN2CCN(c3nc4ccccc4s3)CC2)c2ccc(F)cc2)cc1 [Compound P32] |
| 319 nM | 258 nM | – | – | COc1ccc(CN2CCN(CCCCCC(c3ccc(F)cc3)c3ccc(F)cc3)CC2)cc1OC [Compound P63] |
| 286 nM | 214 nM | – | – | COc1cc(CN2CCN(CCCCCCCCC(c3ccc(F)cc3)c3ccc(F)cc3)CC2)cc(OC)c1OC [Compound P40] |
| 280 nM | 180 nM | – | – | COc1cc(C(=O)N2CCN(C(=O)CCCC(O)C(c3ccc(F)cc3)c3ccc(F)cc3)CC2)cc(OC)c1OC (stereo not shown) [Compound P44, 6,6-bis-(4-fluoro-phenyl)-5-hydroxy-1-[4-(3,4,5-trimethoxy-benzoyl)-piperazin-1-yl]-hexan-1-one] |
| 280 nM | 220 nM | – | – | Fc1ccc(C(CCCCCN2CCN(Cc3ccc(OC(F)(F)F)cc3)CC2)c2ccc(F)cc2)cc1 [Compound P77] |
| 277 nM | 203 nM | – | – | COc1cc(CN2CCN(CCCCCC(c3ccc(F)cc3)c3ccc(F)cc3)CC2)cc(OC)c1O [Compound P101] |
| 200 nM | 980 nM | – | – | O=C1CN(C(=O)CCCCC(c2ccc(F)cc2)c2ccc(F)cc2)CCN1CCOc1ccc(F)cc1 [Compound P53] |
| 190 nM | 150 nM | – | – | COc1c(C(C)(C)C)cc(C(=O)N2CCN(C(=O)CCCCC(c3ccc(F)cc3)c3ccc(F)cc3)CC2=O)cc1C(C)(C)C [Compound P55] |
| 120 nM | 76 nM | – | – | COc1c(C(C)(C)C)cc(C(=O)N2CCN(CCCCCC(c3ccc(F)cc3)c3ccc(F)cc3)C(=O)C2)cc1C(C)(C)C [Compound P54] |
| 102 nM | 56 nM | – | – | COc1cc(CN2CCN(C(=O)CCCCC(c3ccc(F)cc3)c3ccc(F)cc3)CC2=O)cc(OC)c1OC [Compound P48, 4-[6,6-bis-(4-fluoro-phenyl)-hexanoyl]-1-(3,4,5,-trimethoxy-benzyl)-piperazin-2-one] |
| 78 nM | 59 nM | 92 nM | 95 nM | COc1c(C(C)(C)C)cc(CN2CCN(CCCCCC(c3ccc(F)cc3)c3ccc(F)cc3)C(=O)C2)cc1C(C)(C)C [Compound P56] |
| 64 nM | 30 nM | – | – | COc1cc(CNCCN2CCN(CCCCCC(c3ccc(F)cc3)c3ccc(F)cc3)CC2)cc(OC)c1OC [Compound P78] |
